Reference: paper PMC5793121 (Toxins, 2018)
“Also recorded” adds a separate entry of the source. No end group written: not given here.

Columns and labels:
[1] = biological target: T1, rat neuronal heteromeric α4β2 nAChR (Rattus norvegicus, UniProt P09483+P12390); assay type: cell-based
T1 construct: expressed in transfected cells; host or cells: Xenopus laevis oocytes injected with pcDNA3.1 plasmids, α4:β2 1:1
Protocol: Ovary tissue from adult female Xenopus laevis was cut into small pieces and these pieces were digested with collagenase A (4 mg mL^−1, Worthington Biochemical Corp., Lakewood, NJ, USA) in Barth’s solution without calcium (88.0 mM NaCl, 1.1 mM KCl, 2.4 mM NaHCO3, 0.8 mM MgSO4, 15.0 mM HEPES/NaOH, pH 7.6) for 1.5 ± 2 h at 20 °C. The oocytes were stored in Barth’s solution with calcium (88.0 mM NaCl, 1.1 mM KCl, 2.4 mM NaHCO3, 0.3 mM Ca (NO3)2, 0.4 mM CaCl2, 0.8 mM MgSO4, 15.0 mM HEPES/NaOH, pH 7.6) supplemented with 63.0 μg/mL penicillin-G sodium salt, 40.0 μg/mL streptomycin sulfate and 40.0 μg/mL gentamicin. Stage V ± VI oocytes were selected and injected with 3 ng plasmids coding the rat α4 and β2 nAChR subunits (pcDNA3.1 vector) in a molar ratio of 1:1 using an Auto-Nanoliter Injector NanoJect-2 (Drummond Scientific Company, Broomall, PA, USA) in a total injection volume of 23 nL. After injection, oocytes were incubated at 18 °C in Barth’s solution with calcium for 48–120 h. Electrophysiological recordings were made using a Turbo TEC-03X amplifier (npi electronic GmbH, Tamm, Germany) and WinWCP recording software (University of Strathclyde, Glasgow, UK). […] To allow receptor recovery from desensitization, the oocytes were superfused for 5–10 min with buffer (1 mL/min) between ligand applications. Electrophysiological recordings were performed at a holding potential of −60 mV.

[2] = system: human neuronal heteromeric α3-containing nAChRs (α3β2, α3β4, etc.); assay type: cell-based
male ICR mice = test: Forelimb grip strength test (muscle relaxant effect) after intramuscular administration; assay type: in vivo, mouse; details: for effect on forelimb muscular strength: vs saline control
Protocol: 40 male ICR mice were divided equally into four groups: one control and three experimental groups. Animals of the control and experimental groups were treated with normal saline and with Az at doses of 0.03, 0.1 and 0.3 mg/kg, respectively. In addition 6 mice were treated with Az at dose of 0.01 mg/kg. The corresponding solutions were injected into the triceps muscles of the mouse forelimbs at a volume of 0.5 mL/kg per each limb. For all animals their basic forelimb grip strength was recorded before the substance administration with a 1027 grip strength meter (Columbus Instruments, Columbus, OH, USA). Further, their grip strength was measured 5, 10, 15, 20, 30, 60, 90 min after the Az (or normal saline) im administration.
Rocuronium was administered intramuscularly as described for the measurement of acute toxicity (Section 5.4.1). Muscle strength was assessed prior to administration of the substance and then 1, 2, 3, 4, 5 min after administration.

Sprague Dawley rats = assay type: in vivo, rat; design: number of platelets / increase of platelet count from control: unit not given here
Protocol: A repeated dose 14-day intramuscular toxicity study was conducted on 36 SD male and 36 SD female adult rats. They were divided into 3 groups. The first control group was given normal saline, the second and the third experimental groups received Az at doses of 0.1 mg/kg and 0.5 mg/kg, respectively, daily for 14 days. The substances were injected into the quadriceps muscle of the thigh. Every day the animals were examined and any clinical signs of intoxication, body weight and food intake were recorded. The one half of the animals were euthanized on the 15th day of the study, the second half—after a 2-week cancellation period on the 29th day of the study. All animals were autopsied and their organs were inspected for any pathological signs, weighed and histologically examined. The ratio of organ-to-body weight was calculated for several organs: brain, heart, liver, spleen, thymus, kidneys, lungs, testicles and ovaries. The histological analysis was carried out for a number of organs: kidney, adrenal glands, testis, ovary, spleen, thymus, brain, heart, lung, liver, lymph node (mesenteric and mandibular), stomach, skin and muscle from the site of the administration.
A biochemical analysis of blood serum parameters was performed. A level of aspartate aminotransferase, alanine aminotransferase, glutamate dehydrogenase, alkaline phosphatase, gamma-glutamyl transferase, urea nitrogen, creatinine, total bilirubin, total protein, albumin, globulin, phosphorus, calcium, total cholesterol, triglycerides, albumin/globulin ratio was estimated. The analysis was performed using Randox GB reagent kits for each tested parameter and the automatic biochemical analyzer Sapphire-400 (Tokyo Boeki Ltd., Toyko, Japan).
A hematological analysis of animal blood included the evaluation of red and white blood cell number, a hemoglobin level, hematocrit, red cell distribution width, mean corpuscular volume (MCV), mean corpuscular hemoglobin (MCH), mean corpuscular hemoglobin concentration (MCHC), platelets number, a mean platelet volume, a mean platelet component and a cell number of neutrophils, eosinophils, basophils, lymphocytes, monocytes, large unstained cells, reticulocytes. The analysis was performed using a hematological analyzer Mythic 18 Vet (C2 D[…].A., Montpellier, France).

[3] = biological target: muscle-type Torpedo nicotinic acetylcholine receptor (nAChR); details: cited from earlier work
human α7 nAChR = details: cited from earlier work
[4] = system: human muscle-type nAChR fetal form α1β1γδ; details: Xenopus oocytes; cited from earlier work
mice = details: intraperitoneal administration to mice; cited from earlier work
[5] = intramuscular injection to mice (abstract)

T1 sequence (P09483 31-630): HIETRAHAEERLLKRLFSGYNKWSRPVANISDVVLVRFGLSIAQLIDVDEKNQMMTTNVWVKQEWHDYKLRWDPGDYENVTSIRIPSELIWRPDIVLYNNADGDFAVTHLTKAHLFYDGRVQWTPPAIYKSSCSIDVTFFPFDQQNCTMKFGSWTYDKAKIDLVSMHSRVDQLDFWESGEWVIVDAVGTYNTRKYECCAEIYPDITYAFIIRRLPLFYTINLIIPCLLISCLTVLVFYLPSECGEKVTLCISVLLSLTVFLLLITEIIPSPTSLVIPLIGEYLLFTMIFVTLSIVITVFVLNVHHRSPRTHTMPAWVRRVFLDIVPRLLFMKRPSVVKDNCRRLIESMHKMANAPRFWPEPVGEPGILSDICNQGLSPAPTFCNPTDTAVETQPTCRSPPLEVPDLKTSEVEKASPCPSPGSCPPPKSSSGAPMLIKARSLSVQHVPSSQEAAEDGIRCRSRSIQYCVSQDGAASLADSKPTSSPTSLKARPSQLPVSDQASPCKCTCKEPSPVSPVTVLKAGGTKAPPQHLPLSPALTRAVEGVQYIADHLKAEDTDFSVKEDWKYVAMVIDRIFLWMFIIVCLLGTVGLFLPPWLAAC
T1 sequence (P12390 25-500): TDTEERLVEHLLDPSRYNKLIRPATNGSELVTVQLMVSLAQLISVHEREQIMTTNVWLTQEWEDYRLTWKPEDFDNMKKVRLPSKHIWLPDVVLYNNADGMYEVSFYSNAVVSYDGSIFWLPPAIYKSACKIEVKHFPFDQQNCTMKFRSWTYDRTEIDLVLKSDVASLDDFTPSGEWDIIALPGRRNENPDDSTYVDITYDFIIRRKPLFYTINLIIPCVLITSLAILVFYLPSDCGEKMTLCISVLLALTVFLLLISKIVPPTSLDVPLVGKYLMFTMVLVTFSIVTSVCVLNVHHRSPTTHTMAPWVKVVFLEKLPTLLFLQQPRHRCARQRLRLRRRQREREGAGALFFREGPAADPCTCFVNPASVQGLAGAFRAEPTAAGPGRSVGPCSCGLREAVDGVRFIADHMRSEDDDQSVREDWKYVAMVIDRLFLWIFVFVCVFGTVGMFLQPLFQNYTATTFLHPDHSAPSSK

DNWWPKPPHQGPRPPRPRPKP-NH2 [Az, azemiopsin]
influence on ion currents induced by 20 μM nicotine in α4β2 nAChR [1]: no influence
effect on heteromeric rat α4β2 nAChR ([1]; concentrations up to 100 μM): no effect
activity against α3-containing nAChRs (nicotine-evoked calcium responses) [2]: no Az activity; also recorded: no effect
decrease of grip strength (male ICR mice; 0.1 mg/kg im): 37%
average effective dose at the maximum response point (male ICR mice; 10 min after im injection, male ICR mice): 0.09 mg/kg
effect on forelimb muscular strength (male ICR mice; Az 0.01 mg/kg im, n = 6): No significant differences; also recorded: not effective
effect on forelimb muscular strength (male ICR mice; Az 0.03, 0.1 and 0.3 mg/kg im, n = 10): significant decrease
time of maximal muscle relaxant effect after administration (male ICR mice; all doses studied, im, preserved until the 30th minute): 10 min
duration of muscle relaxant effect (male ICR mice; depending on the dose, im): 25 to 55 min
longest period of action (male ICR mice; dose 0.3 mg/kg im, from the 5th to the 60th minute): 55 min
average effective dose (muscle relaxant effect) (male ICR mice; [5]): 0.09 mg/kg
initial effective dose (muscle relaxant effect) (male ICR mice; [5]): 0.03 mg/kg
initial effective dose (muscle relaxant effect) (male ICR mice; single im injection in forelimb muscles, male ICR mice): 0.03 mg/kg
changes in the hemogram relative to control (Sprague Dawley rats; 0.1 mg/kg im 14 days): did not lead to any changes
increase in mean body weight and food intake vs control (Sprague Dawley rats; 0.1 and 0.5 mg/kg im 14 days): did not differ significantly
histological analysis of organs and tissues (Sprague Dawley rats; 0.1 and 0.5 mg/kg im 14 days, rats): No pathological changes
lowering of cholesterol level from control (Sprague Dawley rats; female rats, 0.1 mg/kg): 0.73 mmol/L
level of calcium in blood serum (Sprague Dawley rats; female rats, 0.1 mg/kg, end of 28-day experiment, n = 6, control 3.25 ± 0.09): 3090 ± 60 µM
level of cholesterol in blood serum (Sprague Dawley rats; female rats, 0.1 mg/kg, end of 28-day experiment, n = 6, control 3.55 ± 0.39): 2820 ± 360 µM
decrease of triglyceride level from control (Sprague Dawley rats; male rats receiving Az): 0.28 mmol/L
difference of relative heart mass from control (Sprague Dawley rats; male rats receiving Az): 0.076%
increase of platelet count from control (Sprague Dawley rats; male rats receiving Az): 81
number of platelets (Sprague Dawley rats; male rats, 0.5 mg/kg im 14 days, n = 6, control 729 ± 22): 810 ± 39
mean level of triglycerides in blood serum (Sprague Dawley rats; male rats, 0.5 mg/kg, end of 28-day experiment, n = 6, control 1.25): 970 µM
mean relative heart weight (Sprague Dawley rats; male rats, 0.5 mg/kg, two weeks after administration, n = 6, control 0.428 ± 0.086): 0.352 ± 0.033%
IC50 [3]: 180 ± 30 nM
IC50 (human α7 nAChR): 22000 ± 2000 nM
IC50 [4]: 1560 ± 370 nM
LD50 (mice): 2.57 ± 0.27 mg/kg
